Measured values published in US7674787B2, “Conformationally constrained Smac mimetics and the uses thereof” (The Regents of the University of Michigan, priority 2004, dated 2010).
Read-outs that look alike come from different tables or passages of the source. Where a SMILES comes first, the peptide text is derived from it. [ ]: non-standard residue; d: D form. The star is where a group is joined. 6FAM = O=C1OC2(c3ccc(O)cc3Oc3cc(O)ccc32)c2cc(C(=O)*)ccc21; Abu = CC[C@H](N)C(=O)O

Experiments:
PC-3 cells = assay: Apoptosis by Annexin V-FITC staining in PC-3 cells; type: cell-based, human; details: for cells undergoing apoptosis as compared to control cells: 42 hours; for potentiation of CDDP activity in inducing apoptosis: PC-3 cells or MDA-231 cells
Description: SH-97, a peptido-mimetic in which the side chain of alanine has been replaced with an ethyl group and the isoleucine has been replaced with a diphenylmethyl group, was used to test the basic premise. Of note, SH-97 still has two natural amino acids (valine and proline) and one natural peptide bond. […] The experiment used PC-3 cells which express high levels of XIAP and cIAP-1/2 proteins and cisplatin (CDDP) as the chemotherapeutic drug. CDDP is a DNA damaging agent and can effectively induce apoptosis in PC-3 cells and is also a clinically used chemotherapeutic drug for prostate cancer.
PC-3 cells were treated with CDDP, Smac peptides and mimetics alone or in combination for 42 hours and apoptosis was analyzed by Annexin V-FITC staining. […] Combination of 25 μM CDDP and 10 μM or 25 μM SH-97 induced 29.3%±1.9% and 35.8%±0.4% apoptosis over control cells, respectively (FIG. 18A).
Similar experiments were performed with SH-102 (Table 5). PC-3 cells in 6-well plates were treated with SH-102 and CDDP, alone or in combination, for 42 hours. Cells were collected and stained with Annexin V-FITC and propidium iodide. The fluorescence of Annexin V-FITC and propidium iodide of individual cells was analyzed by flow cytometry. […] Combination of 25 μM CDDP and 10 μM SH-102 induced 32% apoptosis over control cells (FIG. 19).
The same experiment was performed using TAXOTERE (docetaxel), another cancer chemotherapeutic drug. PC-3 cells in 6-well plates were treated with SH-102 and TAXOTERE, alone or in combination, for 42 hours. Cells were collected and stained with Annexin V-FITC and propidium iodide. The fluorescence of Annexin V-FITC and propidium iodide of individual cells was analyzed by flow cytometry. […] Combination of 10 μM TAXOTERE and 10 μM SH-102 induced about 18% apoptosis over control cells (FIG. 21).

MDA-231 cells = assay: Apoptosis by Annexin V-FITC/propidium iodide in MDA-231 cells; type: cell-based, human; details: for cells undergoing apoptosis as compared to control cells: 42 hours
Experimental: Similar experiments were performed using the breast cancer cell line MDA-231. MDA-231 cells in 6-well plates were treated with SH-102 and CDDP, alone or in combination, for 42 hours. Cells were collected and stained with Annexin V-FITC and propidium iodide. The fluorescence of Annexin V-FITC and propidium iodide of individual cells was analyzed by flow cytometry. 25 μM and 50 μM CDDP induced about 25% and 42% of MDA-231 cells to undergo apoptosis as compared to control cells, respectively (FIG. 22). […] Combination of 25 and 50 μM CDDP and 10 μM SH-102 induced about 35% and 75% apoptosis over control cells, respectively (FIG. 22).

XIAP BIR3 = XIAP BIR3 (Homo sapiens, UniProt P98170); assay: biochemical
[1] = system: BT-549, MDA-MB-231 (subclone 2LMP), MDA-MB-231 (ATCC) and PC-3 cells; assay: Cell growth inhibition, WST-8, cancer cell lines; type: cell-based, human; details: 5 days, WST-8; each of the cancer cell lines
Experimental: To test the effect of [6.3.0] Smac mimetics in inhibition of cell growth in human cancer cells, compounds were administered to several different cancer cell lines. BT-549, MDA-MB-231 (subclone 2LMP), and MDA-MB-231 (ATCC) human breast cancer cells and PC-3 human prostate cancer cells were seeded in 96-well plates with increasing concentrations of the compounds. To assay for the selectivity of the compounds for cancer cells, normal prostate epithelial cells were also tested. The cells were then incubated at 37° C. with 5% CO2 for 5 days, followed by detection of cell viability with WST-8. Untreated cells were used as 100% growth. The compounds tested were SH-109, SH-122 and SH-123 (Table 6).

[2] = system: MDA-435, MDA-468, and T47D cells; assay: Cell growth inhibition, WST-8, breast cancer cell lines; type: cell-based, human; details: 5 days, all three cell lines
Experimental: To test the effect of Smac mimetics by themselves in inhibition of cell growth in human cancer cells, SH-102 was administered to three different breast cancer cell lines. MDA-435, MDA-468, and T47D cells were seeded in 96-well plates with increasing concentrations of SH-102, Smac8, or Smac8-C. The cells were then incubated at 37° C. with 5% CO2 for 5 days, followed by detection of cell viability with WST-8 (10% Dojindo solution in IMEM with 10% FCS). OD values at 450 nm with reference at 650 nm were read approximately 3 hours later. Untreated cells were used as 100% growth. […]. […] (FIGS. 26A-26C).

[3] = biological target: T1, human XIAP-BIR3 protein (residues 241-356) (Homo sapiens, UniProt P98170); assay: Fluorescence polarization saturation binding of labeled Smac peptides
T1 construct: The human XIAP-BIR3 protein (residues 241-356) with a His tag
T1 sequence (P98170 241-356): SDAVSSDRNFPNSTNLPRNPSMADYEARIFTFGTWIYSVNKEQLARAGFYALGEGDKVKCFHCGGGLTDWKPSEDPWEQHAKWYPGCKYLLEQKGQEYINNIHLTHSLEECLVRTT
Description: A quantitative in vitro binding assay using fluorescence polarization was developed.

XIAP BIR3, sequence (P98170 241-356): as above

Row | Ki (XIAP BIR3) | Compound | also measured
1 | – | [NH2][Pt]([NH2])([Cl])[Cl] [CDDP, cisplatin, reference compound] | cells undergoing apoptosis as compared to control cells (PC-3 cells; 50 μM CDDP alone): ~25%; cells undergoing apoptosis as compared to control cells (MDA-231 cells; 25 μM CDDP alone): about 25%; cells undergoing apoptosis as compared to control cells (MDA-231 cells; 50 μM CDDP alone): ~42%
2 | 0.028 µM | CC[C@H](N)C(=O)N[C@H]1CCCC[C@H]2CC[C@@H](C(=O)NC(c3ccccc3)c3ccccc3)N2C1=O [SH-109] | cell growth inhibition (in words) [1]: inhibited the cell growth
3 | 0.14 µM | CC[C@H](N)C(=O)N[C@H]1CCCC[C@H]2CC[C@@H](C(=O)N[C@H](c3ccccc3)c3ccccc3C)N2C1=O [SH-113] | –
4 | 9.98 µM | C[C@H](N)C(=O)N[C@H]1CC[C@H]2CC[C@@H](C(=O)NCc3ccoc3)N2C1=O [SH-84] | –
5 | > 200 µM | C[C@H](N)C(=O)N[C@H]1CC[C@H]2CC[C@@H](C(=O)NCCc3c[nH]c4ccccc34)N2C1=O [SH-79] | –
6 | 8.51 µM | CC[C@H](N)C(=O)N[C@H]1CC[C@H]2CC[C@@H](C(=O)N[C@@H](Cc3ccccc3)c3ccccc3)N2C1=O [SH-100] | –
7 | 0.12 µM | CC[C@H](N)C(=O)N[C@H]1CCCC[C@H]2CC[C@@H](C(=O)N[C@H](c3ccccc3)c3ccc4ccccc4c3)N2C1=O [SH-119] | –
8 | 2.01 µM | C[C@H](N)C(=O)N[C@H]1CCC[C@H]2CC[C@@H](COC(c3ccccc3)c3ccccc3)N2C1=O [SH-106] | –
9 | > 10 µM | C[C@H](O)C(=O)N[C@H]1CCCC[C@H]2CC[C@@H](C(=O)NC(c3ccccc3)c3ccccc3)N2C1=O [SH-123] | cell growth inhibition (in words) [1]: inhibited the cell growth
10 | > 40 µM | CC[C@H](N)CC[C@H]1CCC[C@H]2CC[C@@H](C(=O)NC(c3ccccc3)c3ccccc3)N2C1=O [SH-107] | –
11 | 0.016 µM | CC[C@H](N)C(=O)N[C@H]1CCCC[C@H]2CC[C@@H](C(=O)N[C@@H](c3ccccc3)c3ccc(C)cc3)N2C1=O [SH-118] | –
12 | 0.027 µM | CC[C@H](N)C(=O)N[C@H]1CCCC[C@H]2CC[C@@H](C(=O)N[C@H](c3ccccc3)c3cccc(C)c3)N2C1=O [SH-114] | –
13 | 8.88 µM | C[C@H](N)C(=O)N[C@H]1CC[C@H]2CC[C@@H](C(=O)N[C@H](C)c3ccccc3)N2C1=O [SH-72] | –
14 | 0.023 µM | CC[C@H](N)C(=O)N[C@H]1CCCC[C@H]2CC[C@@H](C(=O)N[C@@H](c3ccccc3)c3ccc4ccccc4c3)N2C1=O [SH-120] | –
15 | > 200 µM | C[C@H](N)C(=O)N[C@H]1CC[C@H]2CC[C@@H](C(=O)Nc3ccccc3)N2C1=O [SH-69] | –
16 | 12.2 µM | C[C@H](N)C(=O)N[C@H]1CC[C@H]2CC[C@@H](C(=O)NCc3cccc(Cl)c3)N2C1=O [SH-78] | –
17 | – | AVPIAQKS [Smac-8, Smac peptide without a carrier peptide, negative control, reference compound] | potentiation of CDDP activity in inducing apoptosis (PC-3 cells): unable to potentiate the activity of CDDP; cell growth inhibition (in words) [2]: essentially ineffective

Row | Ki (XIAP BIR3) | Compound | also measured
18 | > 200 µM | C[C@H](N)C(=O)N[C@H]1CC[C@H]2CC[C@@H](C(=O)N[C@@H](C)c3ccccc3)N2C1=O [SH-71] | –
19 | 26.3 µM | C[C@H](N)C(=O)N[C@H]1CC[C@H]2CC[C@@H](C(=O)NCc3ccccc3Br)N2C1=O [SH-73] | –
20 | – | CCC[C@H](N)C(=O)N[C@H]1CC[C@H]2CC[C@@H](C(=O)NCc3ccccc3)N2C1=O [SH-93] | potentiation of CDDP activity in inducing apoptosis (PC-3 cells): unable to potentiate the activity of CDDP; effect of combination with CDDP on apoptosis (MDA-231 cells; 25 and 50 μM CDDP + 25 μM SH-93, 42 hours): no significant effect; Ki (XIAP BIR3; Ki (μM), Table 5): > 100 µM
21 | 19.6 µM | C[C@H](N)C(=O)N[C@H]1CC[C@H]2CC[C@@H](C(=O)NCc3ccc(Br)cc3)N2C1=O [SH-75] | –
22 | 0.019 µM | CC[C@H](N)C(=O)N[C@H]1CCCC[C@H]2CC[C@@H](C(=O)N[C@@H](c3ccccc3)c3ccccc3C)N2C1=O [SH-116] | –
23 | 0.059 µM | C[C@H](N)C(=O)N[C@H]1CCC[C@H]2CC[C@@H](C(=O)NC(c3ccccc3)c3ccccc3)N2C1=O [SH-104] | –
24 | 6.28 µM | C[C@H](N)C(=O)N[C@H]1CC[C@H]2CC[C@@H](C(=O)NCc3ccsc3)N2C1=O [SH-85] | –
25 | 0.29 ± 0.06 µM | CC(C)C(NC(=O)[C@H](C)N)C(=O)C1CCC[C@H]1C(=O)NCc1ccccc1 (stereo partly drawn) [Compound 1] | –
26 | 0.06 µM | CC[C@H](N)C(=O)N[C@H]1CCC[C@H]2CC[C@@H](C(=O)NCc3ccccc3)N2C1=O [Compound 33] | Ki (XIAP BIR3; Ki): 0.06 µM; Ki (XIAP BIR3; Ki (μM), Table 4, [5.3.0] bicyclic lactam system): 0.06 ± 0.015 µM
27 | 0.03 µM | CC[C@@H](C(=O)N[C@H]1CCCC[C@H]2CC[C@@H](C(=O)NC(c3ccccc3)c3ccccc3)N2C1=O)N(C)C [SH-125] | –
28 | 0.012 µM | CC[C@H](N)C(=O)N[C@H]1CCCC[C@H]2CC[C@@H](C(=O)N[C@@H](c3ccccc3)c3cccc(C)c3)N2C1=O [SH-117] | –
29 | 0.092 µM | CC[C@H](N)C(=O)N[C@H]1CCCC[C@H]2CC[C@@H](C(=O)N[C@H](c3ccccc3)c3ccc(C)cc3)N2C1=O [SH-115] | –
30 | – | CC[C@H](N)C(=O)N[C@@H](CCCNC(=N)N)C(=O)N1CCC[C@H]1C(=O)N[C@@H](Cc1ccccc1)C(=O)N[C@@H](CCCCNC(=O)c1ccc2c(c1)C1(OC2=O)c2ccc(O)cc2Oc2cc(O)ccc21)C(=O)O [SM5F, AbuRPFK-FAM] (H-[Abu]RPFK(6FAM)-OH; N-terminus and C-terminus assumed) | ratio of the Kd values between labeled SM5F and S9F ([3]; SM5F versus S9F): 7.2 fold; binding affinity higher than natural Smac peptide S9F ([3]; relative to S9F): about 10 times
31 | 44.4 µM | Cc1cccc(CNC(=O)[C@@H]2CC[C@@H]3CC[C@H](NC(=O)[C@H](C)N)C(=O)N32)c1 [SH-77] | –
32 | – | CC(=O)O[C@@]12CO[C@@H]1C[C@H](O)[C@@]1(C)C(=O)[C@H](O)C3=C(C)[C@@H](OC(=O)[C@H](O)[C@@H](NC(=O)OC(C)(C)C)c4ccccc4)C[C@@](O)([C@@H](OC(=O)c4ccccc4)[C@H]21)C3(C)C [TAXOTERE, docetaxel, reference compound] | cells undergoing apoptosis as compared to control cells (PC-3 cells; 10 μM TAXOTERE alone): about 5%; cells undergoing apoptosis as compared to control cells (PC-3 cells; 20 μM TAXOTERE alone): ~8%
33 | 9.62 µM | C[C@H](N)C(=O)N[C@H]1CC[C@H]2CC[C@@H](C(=O)NCc3cccc(Br)c3)N2C1=O [SH-74] | –

Row | Compound | Ki (XIAP BIR3) | also measured
34 | C[C@H](N)C(=O)N[C@H]1CC[C@H]2CC[C@@H](C(=O)N[C@H](Cc3ccccc3)C(N)=O)N2C1=O [SH-92] | 9.98 µM | –
